From US3965109A, “Certain aryl amino pyridines” (priority 1971, dated 1976)

Columns and labels:
[1] = tested on: Venturia inaequalis (apple); assay: Fungicidal test against foliar disease G (foliage spray plus soil drench); assay type: in vivo; conditions: 100 ppm spray and drench; 21 days
Protocol: This Example illustrates the fungicidal properties of compounds used as active ingredients in the compositions of the invention. The compounds were tested against a wide variety of foliar fungal diseases of plants. In the test, a composition comprising an aqueous solution or suspension of the test compound was sprayed on to the foliage or uninfected plants; the soil in which the plants were growing was also drenched with the composition. The compositions used for spraying and drencing contained 100 parts per million (ppm.) of the test compound except where otherwise stated in the table of results below. After spraying and drenching, the plants were then exposed to infection with the diseases it was desired to control, along with control plants not treated with the compound. After a period of days, depending upon the particular disease, the extent of the disease was visually assessed, as a percentage of the disease established upon the control plants which had not been treated with the compound under test, according to the grading scheme below
In Table 2 below the names of the disease is given in the first column, and in the second column is given the time which elapsed between exposing the plants to infection and assessing the amount of disease.

[2] = tested on: Tetranychus telarius (red spider mites, adults); assay: Pest toxicity test; assay type: in vivo; conditions: 0.1% by weight; French bean; 3 days
[3] = tested on: Tetranychus telarius (red spider mites, eggs); assay: Pest toxicity test; assay type: in vivo; conditions: 0.1% by weight; French bean; 3 days
Aphis fabae = assay: Pest toxicity test; assay type: in vivo; conditions: 0.1% by weight; broad bean; 2 days
Megoura viceae = assay: Pest toxicity test; assay type: in vivo; conditions: 0.1% by weight; broad bean; 2 days
[4] = tested on: Aedes aegypti (mosquito larvae); assay: Pest toxicity test; assay type: in vivo; conditions: 0.01% by weight; water; 1 day
[5] = tested on: Aedes aegypti (mosquito adults); assay: Pest toxicity test; assay type: in vivo; conditions: 0.01% by weight; plywood; 1 day
[6] = tested on: Musca domestica (houseflies); assay: Pest toxicity test, contact test; assay type: in vivo; conditions: 0.1% by weight; milk/sugar; 2 days; flies sprayed directly
[7] = tested on: Pieris brassicae (cabbage white caterpillars); assay: Pest toxicity test; assay type: in vivo; conditions: 0.1% by weight, 2 days
[8] = tested on: Plutella maculipennis (diamond back moth larvae); assay: Pest toxicity test; assay type: in vivo; conditions: in vivo
[9] = tested on: Phaedon cochleariae (mustard beetles); assay: Pest toxicity test; assay type: in vivo; conditions: in vivo
Lettuce = assay: Herbicidal test, pre- and post-emergence; assay type: in vivo; conditions: 10 lb/acre (11.2 kg/ha); scale 0 (no effect) to 3 (complete kill)
Tomato = assay: Herbicidal test, pre- and post-emergence; assay type: in vivo; conditions: 10 lb/acre (11.2 kg/ha); scale 0 (no effect) to 3 (complete kill)
Wheat = assay: Herbicidal test, pre- and post-emergence; assay type: in vivo; conditions: 10 lb/acre (11.2 kg/ha); scale 0 (no effect) to 3 (complete kill)
Maize = assay: Herbicidal test, pre- and post-emergence; assay type: in vivo; conditions: 10 lb/acre (11.2 kg/ha); scale 0 (no effect) to 3 (complete kill)
Sugar beet = assay: Further herbicidal test, various rates; assay type: in vivo; conditions: 5 lb/acre; scale 0 to 5 (complete kill)
Kale = assay: Further herbicidal test, various rates; assay type: in vivo; conditions: 5 lb/acre; scale 0 to 5 (complete kill)
Carrot = assay: Further herbicidal test, various rates; assay type: in vivo; conditions: 5 lb/acre; scale 0 to 5 (complete kill)
Pea = assay: Further herbicidal test, various rates; assay type: in vivo; conditions: 5 lb/acre; scale 0 to 5 (complete kill)
Onion = assay: Further herbicidal test, various rates; assay type: in vivo; conditions: 5 lb/acre; scale 0 to 5 (complete kill)
Barley = assay: Further herbicidal test, various rates; assay type: in vivo; conditions: 5 lb/acre; scale 0 to 5 (complete kill)
Rice = assay: Further herbicidal test, various rates; assay type: in vivo; conditions: 5 lb/acre; scale 0 to 5 (complete kill)
Oat = assay: Further herbicidal test, various rates; assay type: in vivo; conditions: 5 lb/acre; scale 0 to 5 (complete kill)
[10] = tested on: Agrobacterium tumifaciens; assay: Antibacterial agar test (B1); assay type: cell-based; conditions: 50 ppm; 5 days
[11] = tested on: Corynebacterium michiganense; assay: Antibacterial agar test (B2); assay type: cell-based; conditions: 50 ppm; 5 days
Procedure, shortened: (§1)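 Bacterial growth on nutrient agar containing 50 ppm final test compound (added from an acetone solution or suspension) was scored 5 days after multipoint inoculation, using graded ratings. Plates were dried overnight before inoculation.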

Xanthomonas malvacearum = assay: Antibacterial agar test (B3); assay type: cell-based; conditions: 50 ppm; 5 days
Procedure, shortened: as §1

Erwinia carotovora = assay: Antibacterial agar test (B4); assay type: cell-based; conditions: 50 ppm; 5 days
Xanthomonas oryzae = assay type: cell-based; conditions: 50 ppm; 5 days
Pseudomonas syringae = assay: Antibacterial agar test (B6); assay type: cell-based; conditions: 50 ppm; 5 days
Streptomyces scabies = assay: Antibacterial agar test (B7); assay type: cell-based; conditions: 50 ppm; 5 days
[12] = tested on: larvae of the blowfly (Lucilia serrata); assay: Insecticidal test on blowfly larvae on treated filter paper; assay type: in vivo; set-up: key: 5 represents inseccticidal activity equal to that of the known insecticide; 6 represents activity 10 times that of the standard; conditions: scale of 1 to 6; filter paper with horse serum

SMILES: N#Cc1c(F)c(F)c(Nc2c(Cl)c(F)nc(F)c2Cl)c(F)c1F [Compound 19, 4(4-Cyano-2,3,5,6-tetrafluoroanilino)-3,5-dichloro-2,6-difluoropyridine]
- Amount of disease grading, disease G [1]: 3 (0 to 5)
- Mortality grading (kill) [2]: 3 (3 represents over 90% kill)
- Mortality grading (kill) [3]: 3 (3 represents over 90% kill)
- Mortality grading (kill) (Aphis fabae): 3 (3 represents over 90% kill)
- Mortality grading (kill) (Megoura viceae): 3 (3 represents over 90% kill)
- Mortality grading (kill) [4]: 3 (3 represents over 90% kill)
- Mortality grading (kill) [5]: 3 (3 represents over 90% kill)
- Mortality grading (kill), contact test [6]: 3 (3 represents over 90% kill)
- Mortality grading (kill) [7]: 2 (2 represents 60 - 90% kill)
- Mortality grading (kill) [8]: 0 (key: O represents less than 30% kill; 1 represents 30 - 49% kill; 2 represents 60 - 90% kill; 3 represents over 90% kill; C indicates a chemosterilant effect.; A indicates an antifeeding effect.)
- Mortality grading (kill) [9]: 0 (key: O represents less than 30% kill; 1 represents 30 - 49% kill; 2 represents 60 - 90% kill; 3 represents over 90% kill; C indicates a chemosterilant effect.; A indicates an antifeeding effect.)
- Damage to plants, post-emergence (Lettuce): 3
- Damage to plants, pre-emergence (Lettuce): 3
- Damage to plants, post-emergence (Tomato): 3
- Damage to plants, pre-emergence (Tomato): 3
- Damage to plants, post-emergence (Wheat): 2
- Damage to plants, pre-emergence (Wheat): 3
- Damage to plants, post-emergence (Maize): 1
- Damage to plants, pre-emergence (Maize): 3
- Damage to plants, post-emergence (Sugar beet): 2
- Damage to plants, post-emergence (Kale): 3
- Damage to plants, post-emergence (Carrot): 0
- Damage to plants, post-emergence (Pea): 0
- Damage to plants, post-emergence (Onion): 1
- Damage to plants, post-emergence (Barley): 2
- Damage to plants, post-emergence (Rice): 2
- Damage to plants, post-emergence (Oat): 0
- Antibacterial activity grading B1 [10]: 3 (0 to 5)
- Antibacterial activity grading B2 [11]: 3 (0 to 5)
- Antibacterial activity grading B3 (Xanthomonas malvacearum): 3 (0 to 5)
- Antibacterial activity grading B4 (Erwinia carotovora): 3 (0 to 5)
- Antibacterial activity grading B5 (Xanthomonas oryzae): 3 (0 to 5)
- Antibacterial activity grading B6 (Pseudomonas syringae): 3 (0 to 5)
- Antibacterial activity grading B7 (Streptomyces scabies): 3 (0 to 5)
- Activity relative to lindane [12]: 5
